In data set [1] the target is T1, Aurora A kinase (Homo sapiens, UniProt O14965).
T1 construct: purchased
T1 sequence (O14965 1-403): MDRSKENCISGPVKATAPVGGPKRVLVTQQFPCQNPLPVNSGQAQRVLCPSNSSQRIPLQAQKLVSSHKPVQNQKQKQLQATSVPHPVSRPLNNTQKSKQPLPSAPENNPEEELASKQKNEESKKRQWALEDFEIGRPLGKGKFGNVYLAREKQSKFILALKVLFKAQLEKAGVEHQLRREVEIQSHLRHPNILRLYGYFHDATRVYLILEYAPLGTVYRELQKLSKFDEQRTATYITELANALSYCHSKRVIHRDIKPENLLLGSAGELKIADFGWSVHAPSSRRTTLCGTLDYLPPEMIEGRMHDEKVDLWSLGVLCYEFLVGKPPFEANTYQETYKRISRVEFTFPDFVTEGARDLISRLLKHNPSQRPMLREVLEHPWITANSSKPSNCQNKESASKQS
Kind of data set: Aurora-A (human) kinase assay (Kemptide substrate). The class given is biochemical. The settings on record: pIC50 is -log(IC50, M); 15 μM ATP; read-out: Kinase Inhibition pIC50 Aurora A kinase (converted). An outline of the steps: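 Radiometric filter-binding assay: commercial aurora-A kinase (5-10 ng) with 200 μM Kemptide in MOPS/EDTA pH 7.0, started with 10 mM Mg acetate and 15 μM ATP plus [γ-33P]-ATP. Incubated 40 min at room temperature, stopped with phosphoric acid, incorporated 33P counted by scintillation.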

The target of data set [2] is CDK7/cyclin H (Homo sapiens, UniProt P50613). Kind of data set: CDK 7 assay (CTD peptide substrate). The class given is biochemical. The settings on record: read-out: Kinase Inhibition pIC50 CDK7-cyclin H (converted). An outline of the steps:
(§1)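 Recombinant human kinase/cyclin complex (0.5-2 μg) with biotinylated CTD heptapeptide-repeat substrate and test compound, 45 min at 30° C in MOPS pH 7.2 buffer with 15 mM MgCl2 and 100 μM ATP traced with [γ-32P]ATP. Avidin added, P81 filter capture, phosphoric acid washes, scintillation counting of 32P incorporation.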

The target of data set [3] is T2, Flt3 (FMS-like tyrosine kinase-3) (Homo sapiens, UniProt P36888).
T2 sequence (P36888 27-993): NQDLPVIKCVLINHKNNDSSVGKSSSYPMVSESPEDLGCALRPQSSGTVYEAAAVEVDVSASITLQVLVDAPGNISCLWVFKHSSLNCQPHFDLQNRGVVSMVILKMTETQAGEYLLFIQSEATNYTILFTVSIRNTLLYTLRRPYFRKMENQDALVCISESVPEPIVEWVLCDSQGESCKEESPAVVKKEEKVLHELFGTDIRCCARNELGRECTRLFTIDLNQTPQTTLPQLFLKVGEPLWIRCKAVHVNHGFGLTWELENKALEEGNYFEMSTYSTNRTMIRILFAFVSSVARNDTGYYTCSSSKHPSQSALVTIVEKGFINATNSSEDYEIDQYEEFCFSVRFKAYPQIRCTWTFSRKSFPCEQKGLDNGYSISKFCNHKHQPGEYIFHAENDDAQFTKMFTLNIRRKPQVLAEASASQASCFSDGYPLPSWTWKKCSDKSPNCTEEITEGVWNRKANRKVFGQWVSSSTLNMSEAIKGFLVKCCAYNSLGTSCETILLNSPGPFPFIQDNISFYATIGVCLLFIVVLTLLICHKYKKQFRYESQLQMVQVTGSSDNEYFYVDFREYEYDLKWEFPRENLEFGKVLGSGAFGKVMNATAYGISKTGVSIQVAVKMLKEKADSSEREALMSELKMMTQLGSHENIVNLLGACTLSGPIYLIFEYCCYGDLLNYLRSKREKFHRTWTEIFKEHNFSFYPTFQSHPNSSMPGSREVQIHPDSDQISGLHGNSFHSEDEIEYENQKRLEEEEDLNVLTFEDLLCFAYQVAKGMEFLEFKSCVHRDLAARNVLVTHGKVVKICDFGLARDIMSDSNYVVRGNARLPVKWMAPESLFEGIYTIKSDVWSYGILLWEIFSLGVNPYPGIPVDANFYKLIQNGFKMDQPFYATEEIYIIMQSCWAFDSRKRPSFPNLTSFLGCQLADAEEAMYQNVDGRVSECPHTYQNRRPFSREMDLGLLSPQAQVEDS
Kind of data set: Kinase assay (radioactive phosphate incorporation), Flt3. The class given is biochemical. The settings on record: pIC50 is -log(IC50, M), read-out: Kinase Inhibition pIC50 Flt3 (converted). On the procedure:
(§2) Kinase assays. The compounds of the invention above were investigated for their ability to inhibit the enzymatic activity of various protein kinases (Table 2). This was achieved by measurement of incorporation of radioactive phosphate from ATP into appropriate polypeptide substrates. Recombinant protein kinases and kinase complexes were produced or obtained commercially. Assays were performed using 96-well plates and appropriate assay buffers (typically 25 mM β-glycerophosphate, 20 mM MOPS, 5 mM EGTA, 1 mM DTT, 1 mM […], pH 7.4), into which were added 2-4 μg of active enzyme with appropriate substrates. The reactions were initiated by addition of Mg/ATP mix (15 mM MgCl2+100 μM ATP with 30-50 kBq per well of [γ-^32P]-ATP) and mixtures incubated as required at 30° C. Reactions were stopped on ice, followed by filtration through p81 filterplates or GF/C filterplates (Whatman Polyfiltronics, Kent, UK). After washing 3 times with 75 mM aq orthophosphoric acid, plates were dried, scintillant added and incorporated radioactivity measured in a scintillation counter (TopCount, Packard Instruments, Pangbourne, Berks, UK). Compounds for kinase assay were made up as 10 mM stocks in DMSO and diluted into 10% DMSO in assay buffer.

Data set [4] concerns the target GSK3b (Homo sapiens, UniProt P49841). Kind of data set: Kinase assay (radioactive phosphate incorporation), GSK-3b. The class given is biochemical. The settings on record: read-out: Kinase Inhibition pIC50 GSK-3b (converted). On the procedure:
as §2

In data set [5] the target is CDK2-cycline E (Homo sapiens, UniProt P24941). Kind of data set: Kinase assay (radioactive phosphate incorporation), CDK2-cyclin E. The class given is biochemical. Particulars: read-out: Kinase Inhibition pIC50 CDK2-cycline E (converted). An outline of the steps: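 Recombinant active enzyme (2-4 μg) with suitable polypeptide substrate in 25 mM β-glycerophosphate, 20 mM MOPS, 5 mM EGTA, 1 mM DTT, 1 mM […], pH 7.4. Started with 15 mM MgCl2/100 μM ATP plus [γ-32P]-ATP, incubated at 30° C; 32P incorporation captured on filter plates and counted by scintillation.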

The target of data set [6] is CDK9/cyclin T1 (Homo sapiens, UniProt P50750). Kind of data set: CDK 9 assay (CTD peptide substrate). The class given is biochemical. Particulars: read-out: Kinase Inhibition pIC50 CDK9-cyclin T1 (converted). Put shortly:
as §1

In data set [7] the target is CDK4-cyclin D1 (Homo sapiens, UniProt P11802). Kind of data set: Kinase assay (radioactive phosphate incorporation), CDK4-cyclin D1. Particulars: read-out: Kinase Inhibition pIC50 CDK4-cyclin D1 (converted). The class given is biochemical. On the procedure: as §2
Sequence of CDK4-cyclin D1 (P11802 whole entry): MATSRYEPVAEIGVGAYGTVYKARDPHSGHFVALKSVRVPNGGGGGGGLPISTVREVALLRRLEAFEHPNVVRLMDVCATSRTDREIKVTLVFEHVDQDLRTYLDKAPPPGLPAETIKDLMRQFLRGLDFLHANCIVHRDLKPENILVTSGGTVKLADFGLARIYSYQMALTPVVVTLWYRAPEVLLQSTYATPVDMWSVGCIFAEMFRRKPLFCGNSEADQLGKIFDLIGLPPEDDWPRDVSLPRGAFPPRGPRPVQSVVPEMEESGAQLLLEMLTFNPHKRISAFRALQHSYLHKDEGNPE
Sequence of CDK4-cyclin D1 (P24385 whole entry partner): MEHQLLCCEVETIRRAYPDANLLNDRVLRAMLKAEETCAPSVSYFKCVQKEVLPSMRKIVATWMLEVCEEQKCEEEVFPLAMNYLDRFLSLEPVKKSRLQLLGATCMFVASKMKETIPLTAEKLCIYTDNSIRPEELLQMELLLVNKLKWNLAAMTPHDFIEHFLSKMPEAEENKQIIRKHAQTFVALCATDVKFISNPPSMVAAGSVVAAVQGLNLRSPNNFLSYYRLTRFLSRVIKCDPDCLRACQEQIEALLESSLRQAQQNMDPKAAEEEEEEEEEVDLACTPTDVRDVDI
In data set [8] the target is CDK1-cyclin B (Homo sapiens, UniProt P06493). Kind of data set: Kinase assay (radioactive phosphate incorporation), CDK1-cyclin B. Particulars: read-out: Kinase Inhibition pIC50 CDK1-cyclin B (converted). The class given is biochemical. On the procedure:
as §2

SMILES strings stand for the structures.

As a reminder, the melting point is the temperature of the solid-liquid transition.

Sequence of CDK7/cyclin H (P50613 whole entry): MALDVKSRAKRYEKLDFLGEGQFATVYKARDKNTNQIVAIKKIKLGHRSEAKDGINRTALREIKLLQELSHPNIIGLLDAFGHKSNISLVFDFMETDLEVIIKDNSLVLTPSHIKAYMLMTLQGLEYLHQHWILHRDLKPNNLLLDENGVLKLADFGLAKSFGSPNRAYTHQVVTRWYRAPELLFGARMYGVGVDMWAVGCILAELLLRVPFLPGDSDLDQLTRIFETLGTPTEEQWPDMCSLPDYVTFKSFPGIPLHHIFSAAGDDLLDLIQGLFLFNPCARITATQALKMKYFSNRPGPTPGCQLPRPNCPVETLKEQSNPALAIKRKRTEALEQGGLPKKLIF
Sequence of CDK7/cyclin H (P51946 whole entry partner): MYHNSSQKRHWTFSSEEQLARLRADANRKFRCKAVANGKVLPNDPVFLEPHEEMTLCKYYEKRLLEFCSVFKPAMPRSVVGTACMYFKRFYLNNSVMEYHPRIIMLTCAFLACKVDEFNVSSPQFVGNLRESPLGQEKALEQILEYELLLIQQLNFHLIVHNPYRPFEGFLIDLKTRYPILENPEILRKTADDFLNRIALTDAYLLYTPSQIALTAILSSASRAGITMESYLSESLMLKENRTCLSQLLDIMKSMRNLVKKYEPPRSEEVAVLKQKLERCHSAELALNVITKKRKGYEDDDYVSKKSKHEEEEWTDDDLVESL
Sequence of CDK1-cyclin B (P06493 whole entry): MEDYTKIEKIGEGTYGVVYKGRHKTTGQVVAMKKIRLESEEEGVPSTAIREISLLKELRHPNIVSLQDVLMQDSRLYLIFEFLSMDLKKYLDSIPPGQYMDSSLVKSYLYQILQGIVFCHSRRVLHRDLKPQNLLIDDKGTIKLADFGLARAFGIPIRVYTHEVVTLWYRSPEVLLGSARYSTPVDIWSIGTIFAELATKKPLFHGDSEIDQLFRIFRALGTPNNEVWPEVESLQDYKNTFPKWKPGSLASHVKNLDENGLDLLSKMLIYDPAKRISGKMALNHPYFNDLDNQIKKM
Sequence of CDK1-cyclin B (P14635 whole entry partner): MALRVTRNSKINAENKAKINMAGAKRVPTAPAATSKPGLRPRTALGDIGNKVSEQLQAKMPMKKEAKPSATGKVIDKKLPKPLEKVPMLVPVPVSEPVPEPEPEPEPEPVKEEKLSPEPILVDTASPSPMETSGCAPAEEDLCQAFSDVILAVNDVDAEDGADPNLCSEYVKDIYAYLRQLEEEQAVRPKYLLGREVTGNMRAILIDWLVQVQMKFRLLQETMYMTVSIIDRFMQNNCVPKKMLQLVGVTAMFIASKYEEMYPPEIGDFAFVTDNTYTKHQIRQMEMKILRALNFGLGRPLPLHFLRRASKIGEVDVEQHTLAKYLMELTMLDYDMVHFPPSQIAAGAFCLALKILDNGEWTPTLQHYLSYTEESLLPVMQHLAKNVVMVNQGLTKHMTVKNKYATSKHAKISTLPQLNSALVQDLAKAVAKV
Sequence of CDK9/cyclin T1 (P50750 whole entry): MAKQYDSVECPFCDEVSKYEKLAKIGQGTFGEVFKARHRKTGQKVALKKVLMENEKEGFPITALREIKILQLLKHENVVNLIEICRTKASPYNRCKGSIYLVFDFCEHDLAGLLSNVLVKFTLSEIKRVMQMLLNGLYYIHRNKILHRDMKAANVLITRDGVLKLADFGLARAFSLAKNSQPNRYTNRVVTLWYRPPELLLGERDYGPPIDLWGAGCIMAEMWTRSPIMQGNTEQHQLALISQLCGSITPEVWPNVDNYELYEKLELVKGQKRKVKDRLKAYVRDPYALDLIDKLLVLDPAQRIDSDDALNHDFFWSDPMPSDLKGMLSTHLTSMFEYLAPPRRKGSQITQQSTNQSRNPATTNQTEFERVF
Sequence of CDK9/cyclin T1 (O60563 whole entry partner): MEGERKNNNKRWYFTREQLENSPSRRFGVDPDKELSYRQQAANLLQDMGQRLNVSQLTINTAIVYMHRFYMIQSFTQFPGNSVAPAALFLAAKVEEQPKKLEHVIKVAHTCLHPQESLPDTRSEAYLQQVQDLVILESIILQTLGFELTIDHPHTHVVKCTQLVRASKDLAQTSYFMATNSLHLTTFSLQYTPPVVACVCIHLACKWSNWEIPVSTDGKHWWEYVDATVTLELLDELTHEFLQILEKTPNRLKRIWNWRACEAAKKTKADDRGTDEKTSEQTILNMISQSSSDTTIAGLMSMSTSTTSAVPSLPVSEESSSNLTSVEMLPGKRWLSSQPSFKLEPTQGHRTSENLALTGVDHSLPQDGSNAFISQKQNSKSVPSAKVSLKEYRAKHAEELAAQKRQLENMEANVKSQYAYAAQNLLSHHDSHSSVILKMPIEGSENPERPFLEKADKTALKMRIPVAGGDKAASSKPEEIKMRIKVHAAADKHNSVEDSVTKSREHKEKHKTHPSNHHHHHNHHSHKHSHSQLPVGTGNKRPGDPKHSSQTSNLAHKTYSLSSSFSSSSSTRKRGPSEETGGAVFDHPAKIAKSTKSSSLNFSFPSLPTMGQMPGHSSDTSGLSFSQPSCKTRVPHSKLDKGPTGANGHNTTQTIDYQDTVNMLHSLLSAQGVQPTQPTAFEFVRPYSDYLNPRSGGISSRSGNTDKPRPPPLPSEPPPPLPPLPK
Sequence of GSK3b (P49841 whole entry, species assumed): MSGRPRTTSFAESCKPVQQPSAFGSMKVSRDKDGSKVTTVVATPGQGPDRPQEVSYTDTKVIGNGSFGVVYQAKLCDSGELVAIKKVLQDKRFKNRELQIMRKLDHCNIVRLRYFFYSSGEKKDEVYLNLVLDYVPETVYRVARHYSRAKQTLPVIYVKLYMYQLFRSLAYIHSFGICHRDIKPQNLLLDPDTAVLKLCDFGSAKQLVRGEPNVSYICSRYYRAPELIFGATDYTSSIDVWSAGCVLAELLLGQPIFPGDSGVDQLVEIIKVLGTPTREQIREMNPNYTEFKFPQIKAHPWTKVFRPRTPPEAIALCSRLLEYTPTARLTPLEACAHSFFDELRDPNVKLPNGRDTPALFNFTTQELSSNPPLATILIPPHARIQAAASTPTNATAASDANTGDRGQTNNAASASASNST

Turning to `CNc1nc(C)c(-c2ccnc(Nc3ccc(C)c(Br)c3)n2)s1` [Compound 42, (3-Bromo-4-methyl-phenyl)-[4-(4-methyl-2-methylamino-thiazol-5-yl)-pyrimidin-2-yl]-amine], the IC50 in data set [1] was 25.1 nM; in data set [2], 6310 nM; in data set [3] it was 79.4 nM; in data set [4], 1000 nM; in data set [5], 316 nM; in data set [6], 39.8 nM.
Turning to `CNc1nc(C)c(-c2ccnc(Nc3ccc(S(N)(=O)=O)cc3)n2)s1` [Compound 34, 4-[4-(4-Methyl-2-methylamino-thiazol-5-yl)-pyrimidin-2-ylamino]-benzenesulfonamide], the IC50 in data set [1] was 31.6 nM; in [2], 1000 nM; in data set [3], 316 nM; in [4], 1260 nM.
For the compound `Cc1ccc(Nc2nccc(-c3sc(NC(C)(C)C)nc3C)n2)cc1[N+](=O)[O-]` [Compound 2, [4-(2-tert-Butylamino-4-methyl-thiazol-5-yl)-pyrimidin-2-yl]-(4-methyl-3-nitro-phenyl)-amine], the IC50 in data set [2] was 794 nM; in data set [4], 631 nM; in data set [7] it was 316 nM; in data set [8], 1260 nM; in data set [5], 1580 nM; in data set [6], 316 nM.
Consider `COCCNc1nc(C)c(-c2ccnc(Nc3cccc(S(N)(=O)=O)c3)n2)s1` [Compound 83, 3-{4-[2-(2-Methoxy-ethylamino)-4-methyl-thiazol-5-yl]-pyrimidin-2-ylamino}-benzenesulfonamide], for which the IC50 in [2] is 50.1 nM; in data set [3] it was 39.8 nM; in data set [4], 794 nM; in data set [5], 25.1 nM; in [6] it was 15.8 nM.
`Cc1nc(C)c(-c2ccnc(Nc3ccc(C)c(S(=O)(=O)N4CCOCC4)c3)n2)s1` [Compound 82, [4-(2,4-Dimethyl-thiazol-5-yl)-pyrimidin-2-yl]-[4-methyl-3-(morpholine-4-sulfonyl)-phenyl]-amine] came in with a melting point of 81 to 83 °C. In addition, the IC50 in data set [1] was 3160 nM. In addition, the IC50 in [2] was 3980 nM. Also, the IC50 in [4] was 3160 nM. Besides, the IC50 in [5] was 3980 nM. The IC50 in data set [6] is 398 nM.
Compound `Cc1nc(N)sc1-c1ccnc(Nc2cccc(S(=O)(=O)N3CCOCC3)c2)n1` [Compound 81, [4-(2-Amino-4-methyl-thiazol-5-yl)-pyrimidin-2-yl]-[3-(morpholine-4-sulfonyl)-phenyl]-amine] had a melting point of 215 to 216 °C. For the same compound, in data set [1], the IC50 is 3160 nM. Moreover, the IC50 in data set [2] was 6310 nM. For the same compound, the IC50 in [4] is 25.1 nM. The IC50 in data set [5] is 3160 nM.
In the case of `CNc1nc(C)c(-c2ccnc(Nc3cccc(S(=O)(=O)NCCOC)c3)n2)s1` [Compound 54, N-(2-Methoxy-ethyl)-3-[4-(4-methyl-2-methylamino-thiazol-5-yl)-pyrimidin-2-ylamino]-benzenesulfonamide], the melting point was 205 to 206 °C. In data set [1], the IC50 is 25.1 nM. Also, the IC50 in data set [2] is 794 nM. Besides, the IC50 in [3] is 251 nM. The IC50 in data set [4] is 631 nM. Besides, the IC50 in data set [7] is 251 nM. Moreover, the IC50 in data set [5] is 100 nM. The IC50 in [6] was 39.8 nM.
As for `CCNc1nc(C)c(-c2ccnc(Nc3cccc(S(=O)(=O)NC(C)C)c3)n2)s1` [Compound 70, 3-[4-(2-Ethylamino-4-methyl-thiazol-5-yl)-pyrimidin-2-ylamino]-N-isopropyl-benzenesulfonamide], the IC50 was 1000 nM in data set [1], 5010 nM in [4], 158 nM in data set [7] and 100 nM in data set [6].
As for `CNc1nc(C)c(-c2ccnc(Nc3cccc(N4CCN(C(C)=O)CC4)c3)n2)s1` [Compound 3, 1-(4-{3-[4-(4-Methyl-2-methylamino-thiazol-5-yl)-pyrimidin-2-ylamino]-phenyl}-piperazin-1-yl)-ethanone], the IC50 is 20 nM in data set [1]; 2000 nM in [2]; 20 nM in data set [3]; 5010 nM in data set [4]; 3160 nM in data set [7].
As to `CNc1nc(C)c(-c2ccnc(Nc3cc(OC)c(OC)c(OC)c3)n2)s1` [Compound 23, [4-(4-Methyl-2-methylamino-thiazol-5-yl)-pyrimidin-2-yl]-(3,4,5-trimethoxy-phenyl)-amine], the IC50 in data set [1] is 3.98 nM; in data set [2], 794 nM; in [4], 794 nM; in [7], 2000 nM; in data set [8], 1000 nM; in data set [6], 20 nM.
With `Cc1nc(NC(C)(C)C)sc1-c1ccnc(Nc2cccc([N+](=O)[O-])c2)n1` [Compound 51, [4-(2-tert-Butylamino-4-methyl-thiazol-5-yl)-pyrimidin-2-yl]-(3-nitro-phenyl)-amine], the IC50 is 100 nM in data set [1]; 631 nM in data set [4]; 631 nM in [7]; 1580 nM in data set [8]; 631 nM in data set [5].
On to `CC(=O)N1CCN(c2cccc(Nc3nccc(-c4sc(C)nc4C)n3)c2)CC1` [Compound 46, 1-(4-{3-[4-(2,4-Dimethyl-thiazol-5-yl)-pyrimidin-2-ylamino]-phenyl}-piperazin-1-yl)-ethanone], for which the IC50 was 5010 nM in data set [2]; 200 nM in data set [3]; 3160 nM in data set [4]; 12600 nM in data set [8]; 1000 nM in [6].

Source of the values: US20090137572A1, “2-substituted-4-heteroaryl-pyrimidines useful for the treatment of proliferative disorders” (priority 2004, published 2009).
